Results on three compounds are retold here after paper PMC7565988, “Insight into the Anticancer Activity of Copper(II) 5-Methylenetrimethylammonium-Thiosemicarbazonates and Their Interaction with Organic Cation Transporters” (Biomolecules, 2020).

Read-outs that look alike come from different tables or passages of the source.

Series [1] concerns SH-SY5Y neuroblastoma cells. Kind of series: MTT cytotoxicity (24 h) / antiproliferation (72 h) assay. Type of series: cell-based, human. Particulars: MTT. Here is the method:
SH-SY5Y (ATCC® CRL-2266™) neuroblastoma cell line was purchased from LGC Promochem, Teddington, UK. The cell line was cultured in Eagle’s Minimal Essential Medium (EMEM, containing 4.5 g/L glucose) supplemented with a non-essential amino acid mixture, a selection of vitamins and 10% heat-inactivated foetal bovine serum. The cell line was incubated at 37 °C, in a 5% CO2, 95% air atmosphere.
(§1) In the study non-cancerous human embryonic lung fibroblast MRC-5, human colonic adenocarcinoma cell line (doxorubicin-sensitive Colo 205, multidrug resistant Colo 320) and neuroblastoma cell line SH-SY5Y were used to determine the effect of compounds on cell growth. The effects of increasing concentrations of compounds on cell growth were tested in 96-well flat-bottomed microtiter plates. The compounds were diluted in a volume of 100 μL of medium.
The adherent human embryonal lung fibroblast and SH-SY5Y neuroblastoma cells were cultured in 96-well flat-bottomed microtiter plates, using EMEM supplemented with 10% heat-inactivated foetal bovine serum. The density of the cells was adjusted to 2 × 10^4 cells in 100 μL per well, the cells were seeded for 24 h at 37 °C, 5% CO2, then the medium was removed from the plates containing the cells, and the dilutions of compounds previously made in a separate plate were added to the cells in 200 μL.
(§2) The culture plates were incubated at 37 °C for 24 h; at the end of the incubation period, 20 μL of MTT (thiazolyl blue tetrazolium bromide, Sigma) solution (from a stock solution of 5 mg/mL) were added to each well. After incubation at 37 °C for 4 h, 100 μL of sodium dodecyl sulfate (SDS) (Sigma) solution (10% in 0.01 M HCI) were added to each well and the plates were further incubated at 37 °C overnight. Cell growth was determined by measuring the optical density (OD) at 540/630 nm with Multiscan EX ELISA reader (Thermo Labsystems, Cheshire, WA, USA). […] Curves were fitted by GraphPad Prism software using the sigmoidal dose-response model (comparing variable and fixed slopes).
(§3) The method is similar to the one described in the assay for cytotoxic effect. […] The culture plates were incubated at 37 °C for 72 h and after the incubation time, the plates were stained with MTT according to the previous experimental protocol described for the cytotoxicity assay.

The subject of series [2] is Colo 205 doxorubicin-sensitive colonic adenocarcinoma cells. The series is described as above. Format: cell-based, human. Particulars: read-out: Colo205 IC50. Here is the method: Human doxorubicin-sensitive Colo 205 (ATCC-CCL-222) and multidrug resistant Colo 320 (overexpressing ABCB1 (MDR1)-LRP (ATCC-CCL-220.1)) colonic adenocarcinoma cell lines were purchased from LGC Promochem, Teddington, UK. The cells were cultured in RPMI 1640 medium supplemented with 10% heat-inactivated fetal bovine serum, 2 mM L-glutamine, 1 mM Na-pyruvate and 100 mM Hepes. The cell lines were incubated at 37 °C, in a 5% CO2, 95% air atmosphere. The semi-adherent human colon cancer cells were detached with Trypsin-Versene (EDTA) solution for 5 min at 37 °C.
as §1
In case of the colonic adenocarcinoma cells, the two-fold serial dilutions of compounds were prepared in 100 μL of RPMI 1640, horizontally. The semi-adherent colonic adenocarcinoma cells were treated with Trypsin–Versene (EDTA) solution. The cells were adjusted to a density of 2 × 10^4 cells in 100 μL of RPMI 1640 medium, and were added to each well, with the exception of the medium control wells. The final volume of the wells containing compounds and cells was 200 μL.
as §2, §3

The target of series [3] is T1, OCT1 (Homo sapiens, UniProt O15245).
T1 construct: expressed in transfected cells
T1 sequence (O15245 1-554): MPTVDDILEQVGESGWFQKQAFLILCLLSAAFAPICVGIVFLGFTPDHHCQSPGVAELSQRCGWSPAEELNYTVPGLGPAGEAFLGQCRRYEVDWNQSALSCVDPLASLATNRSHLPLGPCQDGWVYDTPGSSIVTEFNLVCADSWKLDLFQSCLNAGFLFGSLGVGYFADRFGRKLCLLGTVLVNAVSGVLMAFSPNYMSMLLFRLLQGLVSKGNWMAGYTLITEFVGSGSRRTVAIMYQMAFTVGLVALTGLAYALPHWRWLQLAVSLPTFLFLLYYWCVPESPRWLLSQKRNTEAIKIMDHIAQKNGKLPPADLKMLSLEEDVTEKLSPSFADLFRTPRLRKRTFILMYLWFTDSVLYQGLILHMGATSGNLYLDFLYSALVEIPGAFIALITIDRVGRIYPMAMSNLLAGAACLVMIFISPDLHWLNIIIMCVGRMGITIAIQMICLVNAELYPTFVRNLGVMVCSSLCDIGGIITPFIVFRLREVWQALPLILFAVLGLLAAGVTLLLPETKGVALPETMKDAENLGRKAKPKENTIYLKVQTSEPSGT
On the set-up: method as in PMID 14576340. Particulars: reference inhibitor; cited from earlier work.

Series [4] deals with T2, OCT2 (Homo sapiens, UniProt O15244).
T2 construct: expressed in transfected cells
T2 sequence (O15244 1-555): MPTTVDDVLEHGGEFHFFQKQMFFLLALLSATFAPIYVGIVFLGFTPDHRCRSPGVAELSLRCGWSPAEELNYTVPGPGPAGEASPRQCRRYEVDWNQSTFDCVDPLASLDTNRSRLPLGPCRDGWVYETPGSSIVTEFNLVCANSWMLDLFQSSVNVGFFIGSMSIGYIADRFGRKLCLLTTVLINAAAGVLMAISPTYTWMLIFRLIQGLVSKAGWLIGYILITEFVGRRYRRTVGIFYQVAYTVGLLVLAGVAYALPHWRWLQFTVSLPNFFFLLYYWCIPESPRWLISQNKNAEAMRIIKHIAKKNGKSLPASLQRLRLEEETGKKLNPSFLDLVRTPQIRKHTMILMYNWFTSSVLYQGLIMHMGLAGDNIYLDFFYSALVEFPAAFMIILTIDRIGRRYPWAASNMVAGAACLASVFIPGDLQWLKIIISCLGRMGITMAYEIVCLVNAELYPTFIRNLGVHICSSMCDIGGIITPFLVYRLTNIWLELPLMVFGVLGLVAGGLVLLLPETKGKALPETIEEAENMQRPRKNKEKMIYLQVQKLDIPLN
Also on record: method as in PMID 14576340. Particulars: reference inhibitor; cited from earlier work.

Series [5] addresses T3, OCT3 (Homo sapiens, UniProt O75751).
T3 construct: expressed in transfected cells
T3 sequence (O75751 1-556): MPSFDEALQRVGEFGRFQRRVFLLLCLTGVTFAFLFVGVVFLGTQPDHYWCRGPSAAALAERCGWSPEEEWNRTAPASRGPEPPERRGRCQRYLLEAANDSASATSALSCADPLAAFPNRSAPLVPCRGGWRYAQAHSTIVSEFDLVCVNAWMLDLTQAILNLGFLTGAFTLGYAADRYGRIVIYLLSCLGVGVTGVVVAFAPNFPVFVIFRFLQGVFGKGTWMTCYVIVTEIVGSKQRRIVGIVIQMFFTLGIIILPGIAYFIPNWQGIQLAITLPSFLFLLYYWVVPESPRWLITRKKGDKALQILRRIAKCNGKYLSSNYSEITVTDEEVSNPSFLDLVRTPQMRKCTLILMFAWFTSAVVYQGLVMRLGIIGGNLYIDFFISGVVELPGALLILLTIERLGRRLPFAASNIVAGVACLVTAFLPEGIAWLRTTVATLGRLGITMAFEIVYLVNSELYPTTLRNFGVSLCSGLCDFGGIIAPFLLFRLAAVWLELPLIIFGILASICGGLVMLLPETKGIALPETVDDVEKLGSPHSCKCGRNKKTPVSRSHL
Also on record: method as in PMID 14576340. Particulars: reference inhibitor; cited from earlier work.

On the set-up of series [6]: method as in doi:10.1002/ejic.201200360. Particulars: pure water; cited from earlier work.
On the set-up of series [7]: method as in doi:10.1002/ejic.201200360. Particulars: pH 7.4; cited from earlier work.

`N.N.[Cl][Pt][Cl]` [Cisplatin, reference compound]: the IC50 in series [1] (24 h exposure) stood at 26 ± 2.38 µM; in series [1] (72 h exposure) it was 0.65 ± 0.08 µM; in series [2] (24 h exposure), 68.8 ± 5.08 µM; in series [2] (72 h exposure), 8.14 ± 1.59 µM.

As to `CCN1/C(=C/c2ccc3ccccc3[n+]2CC)C=Cc2ccccc21` [D-22, decynium-22], the IC50 is 0.98 ± 0.31 µM in series [3], 1.13 ± 0.19 µM in series [4] and 0.09 ± 0.01 µM in series [5].

`NC(=S)N/N=C/c1ccccc1O` [STSC, salicylaldehyde thiosemicarbazone]: in series [6], the “pKa of the phenolic OH moiety” value is listed as 8.88. Moreover, the logD7.4 result in series [7] was “+1.74”.

Broadly, the IC50 is the concentration that inhibits the measured activity by half.
